Source: ChEMBL document CHEMBL1828508, “Biphenyl-3-yl alkylcarbamates as fatty acid amide hydrolase (FAAH) inhibitors: steric effects of N-alkyl chain on rat plasma and liver stability” (Eur J Med Chem, 2011)

Key:
Plasma [1] = assay: (§1) Metabolic stability of the compound in Wistar rat plasma assessed as half life at 1 uM by RP-HPLC analysis; type: ADME, cell-free; settings: 1 µM
Liver [2] = assay: (§2) Metabolic stability of the compound in Wistar rat liver S9 fraction assessed as half life at 1 uM by RP-HPLC analysis; type: ADME, subcellular; settings: s9, 1 µM
[3] = Chemical stability of the compound in 0.01 M borate buffer assessed as half life at pH 9.0 by HPLC analysis; type: physicochemical; settings: for t1/2: buffer; for half-life: 0.01 M borate buffer
[4] = Chemical stability of the compound in 0.01 M PBS assessed as compound remaining at pH 7.4 by HPLC analysis; settings: buffer
[5] = as §1; type: ADME, cell-free; settings: Wistar
[6] = as §2; type: ADME, subcellular; settings: Wistar, liver S9 fraction
Liver [7] = assay: Hydrolytic rate constant, log k of the compound in Wistar rat liver S9 fraction; type: ADME, subcellular
Plasma [8] = assay: Hydrolytic rate constant, log k of the compound in Wistar rat plasma; type: ADME, cell-free
[9] = Chemical stability of the compound in 0.01 M borate buffer assessed as half life at 1 uM and pH 9.0 by HPLC analysis; type: physicochemical
[10] = Chemical stability of the compound in 0.01 M borate buffer assessed as half life at 100 nM and pH 9.0 by HPLC analysis; type: physicochemical
[11] = Chemical stability of the compound in 0.01 M borate buffer assessed as half life at 300 nM and pH 9.0 by HPLC analysis; type: physicochemical
[12] = Metabolic stability of the compound in Wistar rat liver S9 fraction at 1 uM measured after 90 mins by RP-HPLC analysis; type: ADME, subcellular; settings: read-out: Stability
Rattus norvegicus = assay: In vivo displacement of [3H]-anandamide from rat brain FAAH after 30 mins by scintillation counting; type: functional; settings: read-out: ID50 (the source's name)
[13] = target: T1, Fatty-acid amide hydrolase 1 (Rattus norvegicus, UniProt P97612); assay: Displacement of [3H]-anandamide from rat brain FAAH after 30 mins by scintillation counting
T1 sequence (P97612 whole entry): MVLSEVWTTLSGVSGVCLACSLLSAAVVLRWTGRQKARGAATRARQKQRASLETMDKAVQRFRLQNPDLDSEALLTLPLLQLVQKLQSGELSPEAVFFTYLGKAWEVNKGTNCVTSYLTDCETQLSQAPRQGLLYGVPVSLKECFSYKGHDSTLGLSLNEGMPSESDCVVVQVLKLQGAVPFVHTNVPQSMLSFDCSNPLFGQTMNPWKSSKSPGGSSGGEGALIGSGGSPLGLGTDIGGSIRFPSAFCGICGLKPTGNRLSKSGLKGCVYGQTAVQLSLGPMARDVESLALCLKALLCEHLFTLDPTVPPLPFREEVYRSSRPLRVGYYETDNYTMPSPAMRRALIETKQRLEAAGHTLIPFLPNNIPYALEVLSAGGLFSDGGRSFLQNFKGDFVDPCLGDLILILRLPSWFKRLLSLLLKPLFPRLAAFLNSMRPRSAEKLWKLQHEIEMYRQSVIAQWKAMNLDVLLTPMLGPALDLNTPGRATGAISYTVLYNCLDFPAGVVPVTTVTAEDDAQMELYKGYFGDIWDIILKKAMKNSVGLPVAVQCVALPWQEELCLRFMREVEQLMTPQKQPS

[14] = target: T2, Fatty-acid amide hydrolase 1 (Rattus norvegicus) (UniProt P97612); assay: Selectivity index, ratio URB524 pIC50 to compound pIC50 for displacement of [3H]-anandamide from rat brain FAAH after 30 mins by scintillation counting
T2 sequence (whole entry): T1 sequence (P97612 whole entry)

Row | SMILES | t1/2 (Plasma [1]) [min] | t1/2 (Liver [2]) [min] | t1/2 [3] [min] | Stability [4] [%] | half-life at 1 µM [5] [min] | half-life at 1 µM [6] [min] | half-life [3] [min] | Activity (Liver [7]) | Activity (Plasma [8]) | half-life at 1 µM [9] [min] | half-life at 0.1 µM [10] [min] | half-life at 0.3 µM [11] [min] | remaining at 1.5 h, 1 µM [12] [%] | ED50 (Rattus norvegicus) [mg/kg] | pIC50 [13] | Ratio pIC50 [14]
1 | NC(=O)c1cccc(-c2cccc(OC(=O)NCc3ccc4ccccc4c3)c2)c1 | 5.6 | 39 | 13.9 | 22.8 | – | – | – | – | – | – | – | – | – | – | – | –
2 | NC(=O)c1cccc(-c2cccc(OC(=O)NC3CCCCC3)c2)c1 [URB-597] | – | – | – | 40.2 | 33 | 58.7 | 33 | – | – | – | – | – | – | – | – | –
3 | O=C(NCCCCCCc1ccccc1)Oc1cccc(-c2ccccc2)c1 | 8.4 | 39.4 | 73.8 | 61.1 | – | – | – | -1.75 | -1.08 | – | – | – | – | – | – | –
4 | O=C(NCCCCCCN1CCOCC1)Oc1cccc(-c2ccccc2)c1 | 8 | 13 | 33.4 | 30.9 | – | – | – | -1.27 | -1.06 | – | – | – | – | – | – | –
5 | CCCCCCNC(=O)Oc1cccc(-c2ccccc2)c1 | 7.5 | 8 | 68.3 | 46.7 | – | – | – | -1.06 | -1.03 | – | – | – | – | – | – | –
6 | O=C(NC1CCC1)Oc1cccc(-c2ccccc2)c1 | 19.9 | 2.5 | 27.5 | 22.6 | – | – | – | -0.56 | -1.46 | – | – | – | – | – | – | –
7 | O=C(NC12CC3CC(CC(C3)C1)C2)Oc1cccc(-c2ccccc2)c1 | 183.3 | – | – | 66.7 | – | – | – | – | -2.42 | 266 | 264 | 262 | 99.2 | – | – | –
8 | O=C(NCc1ccc2ccccc2c1)Oc1cccc(-c2ccccc2)c1 | 1 | 27.5 | 23.9 | 18.4 | – | – | – | -1.6 | -0.17 | – | – | – | – | – | – | –
9 | O=C(NC1CCCCC1)Oc1cccc(-c2ccccc2)c1 | – | – | – | 41.1 | 42.7 | 6 | 40.7 | -0.94 | -1.79 | 40.4 | 42.3 | 42.7 | – | 0.81 | – | –
10 | O=C(NCc1cccc2ccccc12)Oc1cccc(-c2ccccc2)c1 | 7.3 | 46.8 | 38.7 | 24.8 | – | – | – | -1.83 | -1.03 | – | – | – | – | – | – | –
11 | O=C(NC1CCCC1)Oc1cccc(-c2ccccc2)c1 | 40 | 2.5 | 45.1 | 34.4 | – | – | – | -0.56 | -1.76 | – | – | – | – | – | – | –
12 | O=C(NCC1CCCCC1)Oc1cccc(-c2ccccc2)c1 | 15.3 | 9.8 | 104.8 | 65.4 | – | – | – | -1.15 | -1.35 | – | – | – | – | – | – | –
13 | CCCCNC(=O)Oc1cccc(-c2ccccc2)c1 | 21.6 | 1.8 | 42.9 | 46.7 | – | – | – | -0.41 | -1.49 | – | – | – | – | – | – | –
14 | O=C(NCc1ccccc1)Oc1cccc(-c2ccccc2)c1 | 14.3 | 10.8 | 26.5 | 22.7 | – | – | – | -1.19 | -1.32 | – | – | – | – | – | – | –
15 | CC(C)NC(=O)Oc1cccc(-c2ccccc2)c1 | 20 | 1.9 | 61.8 | 34.6 | – | – | – | -0.45 | -1.46 | – | – | – | – | – | – | –
16 | O=C(NC1Cc2ccccc2C1)Oc1cccc(-c2ccccc2)c1 | 16.5 | 63.1 | 22.4 | 16.2 | – | – | – | -1.96 | -1.38 | – | – | – | – | – | – | –
17 | NC(=O)c1cccc(-c2cccc(OC(=O)NCCCCc3ccccc3)c2)c1 | 4.2 | 46.9 | 30.3 | 18.8 | – | – | – | – | – | – | – | – | – | – | 9.48 | –
18 | O=C(NCCCCc1ccccc1)Oc1cccc(-c2ccccc2)c1 | 6.6 | 19.3 | – | 35.9 | – | – | – | -1.44 | -0.98 | 43.1 | 41.7 | 42 | – | 0.96 | – | 10
19 | CNC(=O)Oc1cccc(-c2ccccc2)c1 | 3.8 | 7.4 | 43.8 | 33.9 | – | – | – | -1.03 | -0.74 | – | – | – | – | – | – | –
20 | O=C(NCCc1ccccc1)Oc1cccc(-c2ccccc2)c1 | 22.1 | 2.7 | 40 | 34.9 | – | – | – | -0.59 | -1.5 | – | – | – | – | – | – | –
